Data on 1 substance can be found in patent US5484803A, “Transcutaneous in vivo activation of photosensitive agents in blood” (priority 1995, dated 1996).

The subject of series [1] is tumor tissue, including leukemic cells. As to conditions: cited from earlier work.
The next series concerns mice skin. Description: Skin photosensitivity tests (skin and behaviour after double treatment). The format is in vivo, Balb/c mice. The source says:
Male Balb/c mice (7-11 weeks old; Charles River, Canada) were used in these studies, unless otherwise specified. Balb/c mice were chosen for the studies because of the lack of pigment in their skin. Shaving and depilation removed the hair very effectively from the entire body except the head. Then, the mouse skin appeared quite transparent. Internal organs, especially dark red organs such as liver and spleen, were visible through the skin. The mice were shaved and depilated with a commercially available depilator (Neet® or Nair®) 5 days before being used in the experiments. Control mice, injected with BPD but not exposed to light, were not shaved. Following injection the mice were kept in the dark for various lengths of time, as described below. Before and after the experiments the mice were kept in an animal facility with 12 hours of light and 12 hours of dark daily. After the experiments, in order to reduce the amount of light reaching the mice, their cages were placed on the lowest shelf with aluminum foil placed above them.
The light box was custom built at a workshop at the University of British Columbia. It was composed of two layers of 14 75 W tungsten-halogen reflector bulbs (General Electric), which illuminated the treatment area from the top and from the bottom. Light was filtered by 1) a set of filters comprising yellow and red plastic films which absorbed most of the light at wavelengths shorter than 600 nm and 2) 15 mm thick water filters which absorbed light above 900 nm. Cooling was provided by a steady flow of cold water in the water filters and by a set of 5 fans. The light intensity was measured by an IL 1350 Photometer (International Light).
The intensity of light delivered by the top and bottom sets of bulbs was not uniform. The bottom set delivered 33-40 mW/cm^2 as measured at floor level of the exposure chamber, while the top set delivered 27-33 mW/cm^2 as measured at the skin surface of the backs of the animals. The range described resulted from inconsistent influence at the horizontal plane of irradiation. In addition, mice moved about during light exposure, so that at various times different parts of their skin received different amounts of light. Therefore, the doses delivered to the surface of mice skin must be approximated and the calculations have been based on an intensity of 30 mW/cm^2.
Six Balb/c mice (22±1 g weight) were prepared as described above. Five mice were injected twice (24 hour interval) with BPD from DMSO stock (not liposomal BPD) and exposed to light 1 hour after the injection. One mouse was not injected but was exposed to light (light-only control). During the first treatment the mice were injected with 15 μg BPD/mouse in 200 μl of PBS. During the second treatment the mice were injected with 20 μg BPD/mouse (0.9 mg/kg). A single mouse was used as a control for both treatments.
Immediately post-injection (on both occasions) the animals were kept for 1 hour in the dark and then were placed in individual plastic containers (9×4×5 cm), which were placed in the light box and exposed to light. The individual mice were removed from the light box at different intervals: 15, 30, 45, 60 and 75 min, respectively. The light doses delivered at the surface of the skin were 27, 54, 81, 108 and 135 J/cm^2, respectively. On the second occasion the same light doses were used; however, mice receiving higher light doses on day 1 received lower doses on day 2. The control mouse was exposed to light for 60 min on both occasions. […]

Series [2] can be described thus: In vitro photodegradation of BPD in mouse blood. As to conditions: for photodegraded BPD, Dose / Photodegraded BPD: in vitro. The format is physicochemical. On the procedure:
Determination of BPD Concentration in Plasma: Plasma samples were obtained by centrifugation of blood collected from mice and stored frozen at -20° C. until assessment. The concentration of BPD in the samples was determined by fluorometry using a Jasco Model FP-770 (Japan Spectroscopic Co.) spectrofluorometer and a microcuvette (Far UV Quartz Cell, Starna Cells Inc.). Excitation and emission wavelengths were 439 and 699 nm, respectively. Plasma samples were diluted 20-fold with PBS containing 1% Triton® X-100 immediately before fluorescence was determined. BPD standards were prepared in 5% mouse plasma in PBS with 1% Triton® X-100. Under these conditions the relationship between the concentration of BPD and units of fluorescence was linear (correlation coefficient >0.99) for concentrations between 0.1 ng/ml and 1 μg/ml. The limit of detection was below 0.1 ng/ml sample which corresponded to 2 ng/ml plasma. […] The 699 nm fluorescence peak of BPD was virtually free from any interference.
In order to assess the amount of light penetrating the tissues, in vitro experiments with mouse blood were carried out. The same light source was used, therefore the spectrum of light was the same. The light doses in this experiment were selected to mimic the doses in the in vivo experiments.
Liposomal BPD was added to freshly obtained heparinized mouse blood to achieve a concentration of 1 μg/ml, following which […] aliquots of blood were dispensed into 35 mm diameter petri dishes, which were placed in the light box and exposed to red light. The dishes were irradiated in the light box from below only. The intensity of light was 35 mW/cm^2. Three different light doses, entailing exposure of 30 min, 1 hour and 1.5-hour, were 63, 126 and 189 J/cm^2, respectively. Duplicate dishes were kept covered with aluminum foil. Immediately following light exposure, the blood was collected from the dishes. Then the plasma was separated by centrifugation. The control unexposed samples were processed at time points corresponding to the light exposed samples.
The concentration of BPD in plasma separated from light-exposed and unexposed blood was determined by fluorescence. About 51-83% of BPD was degraded by the ranges of light doses used.

On to “benzoprophyrin derivative monoacid ring A [BPD]”, for which the “affinity for tumor tissue versus normal cells” value in series [1] was “higher affinity for tumor tissue, including leukemic cells, than for normal non-malignant cells”. Besides, the “signs of skin photosensitization” value in the series on mice skin (0.9 mg/kg, red light 1 hour after injection, 27 to 135 J/cm^2, two weeks) is “did not show any signs of skin photosensitization”. Also, in the series on mice skin (Balb/c, i.e. 15 then 20 μg BPD/mouse (DMSO stock), light 27-135 J/cm^2, immediately post-exposure and two weeks), the “gross changes in skin” value is listed as “No gross changes were observed in mice skin”. In addition, the “effect of the same light dose at lower plasma levels” value in the series on mice skin (as demonstrated in Example 1) is reported as “apparently harmless”. For the same substance, in the series with mice skin (both days of treatment, 27-135 J/cm^2, except occasional scratching), the “behaviour / discomfort under the light” value was “behaved normally under the light, without any signs of discomfort”. Besides, the behavioral changes result in the series on mice skin (two weeks after double treatment) is recorded as “No behavioral changes were observed”. Further, the “BPD concentration in plasma separated from blood” value was found to be 0.760 µg/mL in series [2] (0 h, no light, BPD 1 μg/ml blood); 0.144 µg/mL in series [2] (1 1/2 h, 189 J/cm^2); 0.830 µg/mL in series [2] (1 1/2 h, no light); 0.394 µg/mL in series [2] (1/2 h, 63 J/cm^2); 0.806 µg/mL in series [2] (1/2 h, no light); 0.220 µg/mL in series [2] (1 h, 126 J/cm^2). For the same substance, in series [2] (1 h, no light), the “BPD concentration in plasma separated from blood” value amounted to 0.810 µg/mL. In addition, in series [2] (63-189 J/cm^2, about), the “BPD degraded in vitro” value is given as 51-83%. In addition, the “photodegraded BPD, Dose” value in series [2] (63 J/cm^2) came to 0.412 µg/mL; in series [2] (126 J/cm^2) it was 0.590 µg/mL; in series [2] (189 J/cm^2), 0.686 µg/mL. Also, the “Photodegraded BPD” value came to 51% in series [2] (63 J/cm^2, 1/2 h, 30 min); 73% in series [2] (126 J/cm^2, 1 h); 83% in series [2] (189 J/cm^2, 1 1/2 h, 90 min).
